Laboratory results published in patent US5880097A, “Tethered prodrugs” (Terrapin Techologies, Inc., priority 1996, dated 1999).
*1 amine or outer side, *2 acyl side, *3 side chain or, on linkers, in order; H or OH if unused. Where a SMILES comes first, the peptide text is derived from it. [ ]: non-standard residue; d: D form. The star is where a group is joined. γGlu = O=C(O)[C@H](CCC(=O)[*:2])N[*:1]; dPhg = N[C@@H](C(=O)O)c1ccccc1; Bn = c1ccc(C*)cc1

What was measured:
[1] = molecular target: T1, MRP system of human erythrocytes (Homo sapiens, UniProt P33527); test: Stimulation of basal Mg+2 stimulated ATPase activity in erythrocyte membranes; assay type: biochemical; details: 37° C., 30 minutes; for Km / Vmax of ATPase stimulation: average of three determinations
T1 construct: from tissue; host or cells: human erythrocytes (membranes; inside-out vesicles)
Description: (§1) Two indirect measures of interaction of test compounds in the MRP system of human erythrocytes were used. The first was stimulation of basal Mg^+2 stimulated ATPase activity, the other was inhibition of transport of tritiated dinitrophenyl-S-glutathione.
In the first method, the method of Bartosz, M. et al, Biochem Mol Biol Int (1994) 34:521-529 was used. Briefly, the compounds were added to erythrocyte membranes in a medium containing 100 mM Tris HCl, […], 10 mM MgCl2, 1 mM ATP, 0.1 mM ouabain and 1 mM EGTA with an incubation at 37° C. for 30 minutes. Stimulation of ATPase activity was measured as described.

[2] = molecular target: T1, MRP system of human erythrocytes; test: Inhibition of uptake of tritiated DNP-glutathione conjugate by inside-out vesicles of human erythrocytes; assay type: biochemical; details: for inhibition of labeled conjugate (DNP-GSH) uptake: compound 1 μM, labeled DNP-GSH 5 μM, 15 minutes at 37° C., mean of three trials; for Interaction with MRP pump (reduction of transport of radiolabeled GSH analog): summary in words
Description: as §1
In the alternative method, the uptake of tritiated DNP-glutathione conjugate by inside-out vesicles of human erythrocytes was determined as described in Akerboom, T. P. M. et al, Biochim Biophys Acta (1992) 1103.:115-119. The labeled DNP-GSH concentration was 5 μM and the compounds were added at a final concentration of 1 μM; uptake of labeled DNP-GSH was measured after 15 minutes incubation at 37° C.

GST A1-1 = molecular target: T2, GST A1-1 (Homo sapiens, UniProt P08263); details: as described in the PCT application WO 95/09866; cited from earlier work
T2 sequence (P08263 1-222): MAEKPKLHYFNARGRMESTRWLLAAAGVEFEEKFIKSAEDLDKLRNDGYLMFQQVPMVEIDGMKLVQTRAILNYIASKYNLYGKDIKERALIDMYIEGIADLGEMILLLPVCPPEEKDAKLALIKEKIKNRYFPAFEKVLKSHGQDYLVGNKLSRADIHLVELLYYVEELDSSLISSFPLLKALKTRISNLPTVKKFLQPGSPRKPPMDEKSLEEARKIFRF

GST P1-1 = GST P1-1 (Homo sapiens, UniProt P09211); details: cited from earlier work
Sequence of GST P1-1 (P09211 2-210 limits assumed): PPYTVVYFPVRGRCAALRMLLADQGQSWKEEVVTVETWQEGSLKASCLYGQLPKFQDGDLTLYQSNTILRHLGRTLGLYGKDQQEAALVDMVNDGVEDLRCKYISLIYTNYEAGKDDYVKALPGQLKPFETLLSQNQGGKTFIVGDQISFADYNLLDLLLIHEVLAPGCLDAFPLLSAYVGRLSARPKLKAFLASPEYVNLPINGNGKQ

T1 sequence (P33527 whole entry): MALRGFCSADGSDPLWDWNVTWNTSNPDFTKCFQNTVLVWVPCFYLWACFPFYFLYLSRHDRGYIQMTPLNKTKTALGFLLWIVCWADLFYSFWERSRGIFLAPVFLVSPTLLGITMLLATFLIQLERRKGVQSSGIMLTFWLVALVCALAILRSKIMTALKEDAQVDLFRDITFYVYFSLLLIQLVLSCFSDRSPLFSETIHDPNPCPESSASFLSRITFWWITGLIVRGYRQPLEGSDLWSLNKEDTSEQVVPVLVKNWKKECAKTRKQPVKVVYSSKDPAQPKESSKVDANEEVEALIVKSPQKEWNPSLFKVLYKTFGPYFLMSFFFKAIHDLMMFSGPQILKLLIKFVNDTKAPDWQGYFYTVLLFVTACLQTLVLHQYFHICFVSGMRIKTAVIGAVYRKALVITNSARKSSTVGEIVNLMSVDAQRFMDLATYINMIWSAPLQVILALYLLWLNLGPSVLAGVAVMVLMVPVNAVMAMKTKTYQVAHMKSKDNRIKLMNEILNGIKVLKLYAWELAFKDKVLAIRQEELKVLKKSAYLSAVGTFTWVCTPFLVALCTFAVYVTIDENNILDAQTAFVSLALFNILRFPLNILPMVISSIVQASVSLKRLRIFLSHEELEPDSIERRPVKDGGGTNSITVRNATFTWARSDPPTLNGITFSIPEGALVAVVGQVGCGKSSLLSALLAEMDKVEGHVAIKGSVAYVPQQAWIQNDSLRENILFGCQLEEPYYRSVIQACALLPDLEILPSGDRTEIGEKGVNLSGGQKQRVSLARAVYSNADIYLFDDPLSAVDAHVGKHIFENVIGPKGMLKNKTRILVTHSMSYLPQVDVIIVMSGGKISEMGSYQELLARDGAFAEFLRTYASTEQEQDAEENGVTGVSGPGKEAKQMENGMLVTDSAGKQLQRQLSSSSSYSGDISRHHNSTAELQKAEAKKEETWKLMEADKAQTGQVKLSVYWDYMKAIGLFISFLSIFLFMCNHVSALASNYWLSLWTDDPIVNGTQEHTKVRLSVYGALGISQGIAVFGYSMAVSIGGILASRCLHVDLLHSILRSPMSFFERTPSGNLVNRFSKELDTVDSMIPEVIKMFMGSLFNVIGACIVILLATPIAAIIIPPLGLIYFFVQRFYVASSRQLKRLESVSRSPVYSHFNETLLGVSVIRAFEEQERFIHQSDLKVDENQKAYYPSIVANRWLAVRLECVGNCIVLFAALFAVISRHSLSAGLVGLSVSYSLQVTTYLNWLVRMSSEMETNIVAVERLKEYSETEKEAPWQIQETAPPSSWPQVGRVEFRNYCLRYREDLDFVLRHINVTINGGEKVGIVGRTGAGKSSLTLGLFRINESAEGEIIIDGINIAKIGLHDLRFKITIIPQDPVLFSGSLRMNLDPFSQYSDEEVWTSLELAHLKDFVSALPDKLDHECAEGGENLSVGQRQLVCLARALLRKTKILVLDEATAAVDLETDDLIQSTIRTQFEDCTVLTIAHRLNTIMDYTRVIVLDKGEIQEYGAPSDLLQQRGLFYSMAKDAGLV

N[C@@H](CCC(=O)N[C@@H](CSCc1ccccc1)C(=O)NCCC(=O)O)C(=O)O [TER 106, γGlu-C(Bz)-βAla]
Km [1]: 1820 µM
Vmax of ATPase stimulation [1]: 209.6 mM/mg protein per hr
inhibition of labeled conjugate (DNP-GSH) uptake [2]: 66.2%
Interaction with MRP pump (reduction of transport of radiolabeled GSH analog) [2]: interact with MRP so as to reduce the transport of radiolabeled GSH analog

N[C@@H](CCC(=O)N[C@@H](CSCc1ccccc1)C(=O)N[C@@H](C(=O)O)c1ccccc1)C(=O)O [TER 117, γGlu-C(Bz)-.o slashed.Gly] (γGlu-Cys(Bn)-[dPhg]-OH)
Stimulation of ATPase activity [1]: did not stimulate ATPase activity
inhibition of labeled conjugate (DNP-GSH) uptake [2]: 0.2%
Interaction with MRP pump (reduction of transport of radiolabeled GSH analog) [2]: does not

N[C@@H](CCC(=O)N[C@@H](CSCc1ccccc1)C(=O)NCC(=O)O)C(=O)O [TER 222, γGlu-C(Bz)-Gly]
Km [1]: 385 µM
Vmax of ATPase stimulation [1]: 125.9 mM/mg protein per hr
inhibition of labeled conjugate (DNP-GSH) uptake [2]: 62.5%
Interaction with MRP pump (reduction of transport of radiolabeled GSH analog) [2]: interact with MRP so as to reduce the transport of radiolabeled GSH analog

N[C@@H](CCC(=O)N[C@@H](CS(=O)(=O)CCOP(=O)(N(CCCl)CCCl)N(CCCl)CCCl)C(=O)N[C@@H](C(=O)O)c1ccccc1)C(=O)O [TER 286]
Susceptibility to cleavage by GST A1-1 (GST A1-1): particularly susceptible to cleavage
Susceptibility to cleavage by GST P1-1 (GST P1-1; as described in the PCT application WO 95/09866): particularly susceptible to cleavage
Isoenzyme specificity of prodrug (GST P1-1; cells having GST complements high in the P1-1 isoform): has the desired isoenzyme specificity
